Results: patent US20230339851A1, “CXCR6 SULFONAMIDE COMPOUNDS” (CHEMOCENTRYX, INC., priority 2022, published 2023)

Target: T1, human CXCR6 (Homo sapiens, UniProt O00574)
T1 construct: expressed in transfected cells
Test: Radioligand Binding Assay (125I-CXCL16 displacement)
Conditions: L1.2 cells stably transfected with human CXCR6 cDNA, 0.1 nM 125I-CXCL16, 4° C., three-hour incubation; read-out: Potency (IC50)
Procedure: L1.2 cells stably transfected with human CXCR6 cDNA ([…]) were incubated at 4° C. in HBSS containing 0.1 % BSA and 0.1 nM of ^125I-CXCL16 plus various concentrations of Compound. Following a three-hour incubation period, cells were aspirated onto polyethyleneimine-treated GF/B glass fiber filters (PerkinElmer, Waltham, MA) with a cell harvester (Tomtec, Hamden, CT) and washed twice with washing buffer (25 mM Hepes, 500 mM NaCl, 1 mM CaCI2, 5 mM MgCI2, pH 7.1). Fifty µl of MicroScint-20 (PerkinElmer, Waltham, MA) was added to each well of the filters, and radioactive emissions (cpm) were measured on a Packard TopCount Scintillation counter (PerkinElmer, Waltham, MA). IC50 values were calculated with GraphPad Prism using 3 parameter nonlinear regression. […]

T1 sequence (O00574 whole entry): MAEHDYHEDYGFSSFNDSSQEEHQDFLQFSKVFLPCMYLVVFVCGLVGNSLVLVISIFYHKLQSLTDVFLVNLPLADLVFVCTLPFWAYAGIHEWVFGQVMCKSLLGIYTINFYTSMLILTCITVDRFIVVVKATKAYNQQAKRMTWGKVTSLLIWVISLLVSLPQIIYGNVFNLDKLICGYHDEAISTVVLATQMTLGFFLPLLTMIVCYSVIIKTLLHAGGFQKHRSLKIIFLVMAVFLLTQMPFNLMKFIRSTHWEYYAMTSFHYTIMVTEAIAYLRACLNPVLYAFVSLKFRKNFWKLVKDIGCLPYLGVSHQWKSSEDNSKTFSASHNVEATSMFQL

Row | IC50 | Structure (SMILES)
1 | ≤ 200 nM | CCOc1cc(NC(=O)[C@@H](CO)c2ccccc2)ccc1S(=O)(=O)Nc1ccc(F)c(OC(F)(F)F)c1 [Example 1.208]
2 | 200 to 750 nM | COc1cc(NC(=O)C2CC3C=CC2O3)ccc1S(=O)(=O)Nc1cccc(OC(F)(F)F)c1 (stereo not shown) [Example 1.179]
3 | ≤ 200 nM | CCc1cc(NC(=O)C(NC(C)=O)C(C)C)ccc1S(=O)(=O)Nc1cccc(OC(F)(F)F)c1 (stereo not shown) [Example 1.487]
4 | 2000 to 20000 nM | COc1cc(NC(=O)[C@@H]2CCC[C@H](OC)C2)ccc1S(=O)(=O)Nc1cccc(C(F)(F)F)c1 [Example 1.561]
5 | ≤ 200 nM | CC(=O)N[C@H](C(=O)Nc1ccc(S(=O)(=O)Nc2cccc(OC(F)(F)F)c2)c(C)c1)c1ccccc1 [Example 1.481]
6 | ≤ 200 nM | Cc1cc(NC(=O)[C@@H](CO)C(C)C)ccc1S(=O)(=O)Nc1cccc(OC(F)(F)F)c1 [Example 1.174]
7 | ≤ 200 nM | CCCOc1cc(NC(=O)[C@@H](O)C(C)C)ccc1S(=O)(=O)Nc1cccc(OC(F)(F)F)c1 [Example 1.034]
8 | ≤ 200 nM | CCOc1cc(NC(=O)c2cccnc2)ccc1S(=O)(=O)Nc1cccc(OC(F)(F)F)c1 [Example 1.403]
9 | 2000 to 20000 nM | COc1cc(NC(=O)C2CCCCC2)ccc1S(=O)(=O)Nc1cccc(C(F)(F)F)c1 [Example 1.008]
10 | 750 to 2000 nM | CCOc1cc(NC(=O)CCOC)ccc1S(=O)(=O)Nc1cccc(OC(F)(F)F)c1 [Example 1.186]
11 | 200 to 750 nM | CCOc1cc(NC(=O)C2CCCOC2)ccc1S(=O)(=O)Nc1cccc(OC(F)(F)F)c1 (stereo not shown) [Example 1.420]
12 | 750 to 2000 nM | COc1cc(NC(=O)c2ccnn2C)ccc1S(=O)(=O)Nc1ccc(OC(F)(F)F)c(Cl)c1 [Example 1.559]
13 | 2000 to 20000 nM | CCOc1cc(NC(=O)[C@@H](CO)c2ccccc2)ccc1S(=O)(=O)Nc1ccc(CO)c(C(F)(F)F)c1 [Example 1.388]
14 | 750 to 2000 nM | CCOc1cc(NC(=O)C2CCN(C)C(=O)C2)ccc1S(=O)(=O)Nc1cccc(OC(F)(F)F)c1 (stereo not shown) [Example 1.316]
15 | 2000 to 20000 nM | COc1cc(NC(C)=O)ccc1S(=O)(=O)Nc1cccc(C(F)(F)F)c1 [Example 1.374]
16 | ≤ 200 nM | CCOc1cc(NC(=O)[C@@H](NC(C)=O)C(C)C)ccc1S(=O)(=O)Nc1ccc(C)c(C(F)(F)F)c1 [Example 1.543]
17 | 200 to 750 nM | CCOc1cc(NC(=O)[C@H]2CC=CC[C@H]2CO)ccc1S(=O)(=O)Nc1cccc(OC(F)(F)F)c1 [Example 1.539]
18 | 200 to 750 nM | CCOc1cc(NC(=O)[C@@H](CO)C(C)C)ccc1S(=O)(=O)Nc1ccc2c(c1)OC(F)(F)O2 [Example 1.050]
19 | ≤ 200 nM | CCOc1cc(NC(=O)c2cccnc2C)ccc1S(=O)(=O)Nc1cccc(OC(F)(F)F)c1 [Example 1.200]
20 | ≤ 200 nM | CCOc1cc(NC(=O)[C@H](CO)C(C)C)ccc1S(=O)(=O)Nc1cccc(OC(F)(F)F)c1 [Example 1.139]
21 | ≤ 200 nM | COCc1cc(NC(=O)[C@@H](CO)c2ccccc2)ccc1S(=O)(=O)Nc1cccc(OC(F)(F)F)c1 [Example 1.143]
22 | 2000 to 20000 nM | CCOc1cc(NC(=O)[C@@H](NS(C)(=O)=O)C(C)CC)ccc1S(=O)(=O)Nc1cccc(OC(F)(F)F)c1 (stereo partly shown) [Example 1.367]
23 | ≤ 200 nM | CCOc1cc(NC(=O)C(O)c2ccc(Cl)cc2)ccc1S(=O)(=O)Nc1cccc(OC(F)(F)F)c1 (stereo not shown) [Example 1.338]
24 | 200 to 750 nM | Cc1cc(NC(=O)c2ccnn2C)cc(F)c1S(=O)(=O)Nc1cccc(OC(F)(F)F)c1 [Example 1.502]
25 | 200 to 750 nM | COc1cc(NC(=O)c2ccnn2C)ccc1S(=O)(=O)Nc1cc(Cl)cc(OC(F)(F)F)c1 [Example 1.336]
26 | ≤ 200 nM | CCOC(=O)C(C(=O)Nc1ccc(S(=O)(=O)Nc2cccc(OC(F)(F)F)c2)c(OCC)c1)C1CCCC1 (stereo not shown) [Example 1.144]

Row | IC50 | Structure (SMILES)
27 | 200 to 750 nM | COc1cc(NC(=O)[C@@H]2CCOC[C@H]2C)ccc1S(=O)(=O)Nc1cccc(OC(F)(F)F)c1 (racemic) [Example 1.007]
28 | ≤ 200 nM | CCOc1cc(NC(=O)C(CCO)c2ccccc2)ccc1S(=O)(=O)Nc1cccc(OC(F)(F)F)c1 (stereo not shown) [Example 1.047]
29 | ≤ 200 nM | CCOc1cc(NC(=O)[C@@H](CO)c2ccccc2)ccc1S(=O)(=O)Nc1cccc(C(C)(C)C)c1 [Example 1.170]
30 | ≤ 200 nM | CCOc1cc(NC(=O)[C@@H](N)CC(C)C)ccc1S(=O)(=O)Nc1cccc(OC(F)(F)F)c1 [Example 1.109]
31 | ≤ 200 nM | CCOc1cc(NC(=O)[C@@H](CO)c2ccccc2)ccc1S(=O)(=O)Nc1cccc(C(C)C)c1 [Example 1.541]
32 | ≤ 200 nM | CCOc1cc(NC(=O)[C@@H](CO)c2ccccc2)ccc1S(=O)(=O)Nc1ccc(C)c(C(F)(F)F)c1 [Example 1.425]
33 | 750 to 2000 nM | CCOc1cc(NC(=O)[C@H]2CC[C@H](OC)CC2)ccc1S(=O)(=O)Nc1cccc(OC(F)(F)F)c1 [Example 1.028]
34 | 2000 to 20000 nM | COc1cc(NC(=O)c2ccnn2C)ccc1S(=O)(=O)Nc1ccccc1OC(F)(F)F [Example 1.016]
35 | 750 to 2000 nM | COc1cc(NC(=O)c2ccnn2C)ccc1S(=O)(=O)Nc1ccc(F)c(C(F)(F)F)c1 [Example 1.248]
36 | 750 to 2000 nM | CCc1cc(C(=O)Nc2ccc(S(=O)(=O)Nc3cccc(C(F)(F)F)c3)c(OC)c2)n(C)n1 [Example 1.027]
37 | ≤ 200 nM | CCOc1cc(NC(=O)[C@@H](N)c2ccccc2)ccc1S(=O)(=O)Nc1ccc(Cl)c(OC(F)(F)F)c1 [Example 1.234]
38 | ≤ 200 nM | CCOc1cc(NC(=O)C(CCO)CC(C)C)ccc1S(=O)(=O)Nc1cccc(OC(F)(F)F)c1 (stereo not shown) [Example 1.383]
39 | 200 to 750 nM | CCc1cc(NC(=O)c2ccns2)ccc1S(=O)(=O)Nc1cccc(C(F)(F)F)c1 [Example 1.225]
40 | 200 to 750 nM | CCOc1cc(NC(=O)[C@@H](O)C(C)C)ccc1S(=O)(=O)Nc1ccc(Cl)cc1 [Example 1.398]
41 | ≤ 200 nM | CCOc1cc(NC(=O)[C@@H](O)c2ccccc2F)ccc1S(=O)(=O)Nc1cccc(OC(F)(F)F)c1 [Example 1.329]
42 | 2000 to 20000 nM | Cc1cc(NC(=O)C2(C)CCCCC2)ccc1S(=O)(=O)Nc1cccc(C(F)(F)F)c1 [Example 1.265]
43 | ≤ 200 nM | CCOc1cc(NC(=O)c2ccnnc2)ccc1S(=O)(=O)Nc1cccc(OC(F)(F)F)c1 [Example 1.530]
44 | 200 to 750 nM | CCOc1cc(NC(=O)[C@@H](CO)c2ccccc2)ccc1S(=O)(=O)Nc1ccc(Cl)c(C)c1 [Example 1.258]
45 | ≤ 200 nM | CCOc1cc(NC(=O)C(CO)C(C)C)ccc1S(=O)(=O)Nc1cccc(OC(F)(F)F)c1 (stereo not shown) [Example 1.563]
46 | 200 to 750 nM | COc1cc(NC(=O)C2=C(C)OCCC2)ccc1S(=O)(=O)Nc1cccc(OC(F)(F)F)c1 [Example 1.525]
47 | ≤ 200 nM | CCOc1cc(NC(=O)[C@@H](O)c2ccccc2)ccc1S(=O)(=O)Nc1ccc(C)c(OC(F)(F)F)c1 [Example 1.279]
48 | 2000 to 20000 nM | COc1cc(NC(=O)[C@@H]2CCC[C@@H]2N)ccc1S(=O)(=O)Nc1cccc(C(F)(F)F)c1 [Example 1.347]
49 | 2000 to 20000 nM | Cn1nccc1C(=O)Nc1ccc(S(=O)(=O)Nc2cccc(C(F)(F)F)c2)c(F)c1 [Example 1.256]
50 | ≤ 200 nM | Cc1cc(NC(=O)c2ccnn2C)ccc1S(=O)(=O)Nc1cccc(C(F)(F)F)c1 [Example 1.036]
51 | ≤ 200 nM | CCOc1cc(NC(=O)C(O)C(F)(F)F)ccc1S(=O)(=O)Nc1cccc(OC(F)(F)F)c1 (stereo not shown) [Example 1.406]
52 | ≤ 200 nM | CCOc1cc(NC(=O)[C@@H]2CCCCC[C@@H]2O)ccc1S(=O)(=O)Nc1cccc(OC(F)(F)F)c1 [Example 1.404]
